Consider seven compounds from patent US20250162988A1, “CRYSTALS OF VITAMIN D DERIVATIVE OR CRYSTALS OF SOLVATE THEREOF” (TEIJIN PHARMA LIMITED, priority 2022, published 2025).

For data set [1] the following is noted: in vivo; cited from earlier work.
Data set [2] deals with rat oligodendrocyte progenitor cells. Briefly: Promotive activity of rat oligodendrocyte progenitor cell differentiation (MBP immunostaining). It is filed as cell-based, SD rats. The note with it: vitamin D derivative 2 μM, T3 30 nM, cultured for 4 days. Here is the method: The promotive activity of oligodendrocyte progenitor cell (OPC) differentiation of the vitamin D derivatives was evaluated by immunostaining of myelin basic protein (MBP).
Subsequently, oligodendrocyte progenitor cell separation medium was added to the flask, and the mixture was similarly shaken for about 22 hours (37° C., 200 rpm), and the supernatant was collected to prepare oligodendrocyte progenitor cells.
After cell seeding, a solution of the test compound or a solution prepared from DMSO with a differentiation medium were added to the cells such that the DMSO concentration in the wells was 0.1%. The cells were cultured for 4 days.

Data set [3] can be described thus: Evaluation of brain penetration in mice (single oral dose, plasma and brain level by LC/MS/MS). It is filed as in vivo, C57BL/6J mice. The note with it: mean ± S.D. Here is the method: The administration solution was administered orally to C57BL/6J mice (8 weeks old, male, n=3) at a single dose (1 mg/kg). Mice were euthanized at 6 points of 0.25, 0.5, 1, 2, 4, and 8 hours after administration, and plasma and brain sampling were performed. After preparing a homogenate from the collected brain using Tissue Lyser II (QIAGEN #85300), acetonitrile was added to the homogenate and the homogenate was centrifuged (TOMY DIGITAL BIOLOGY MX-307, 12000 rpm, 5 minutes) to extract the administered test compound contained in the brain. Similarly, the plasma was subjected to addition of acetonitrile and centrifugal separation to extract the administered test compound contained in the plasma. Each extracted sample was subjected to measurement of the concentration of administered test compound using LC/MS/MS (SHIMADZU UFLC/MS/MS (8050)).
The administration solution was administered orally to C57BL/6J mice (8 weeks old, male, n=3) at a single dose (0.2 mg/kg). Mice were euthanized at 6 points of 0.25, 0.5, 1, 2, 4, and 8 hours after administration, and plasma and brain sampling were performed. After preparing a homogenate from the collected brain using Tissue Lyser II (QIAGEN #85300), acetonitrile was added to the homogenate and the homogenate was centrifuged (TOMY DIGITAL BIOLOGY MX-307, 12000 rpm, 5 minutes) to extract the administered compound contained in the brain. Similarly, the plasma was subjected to addition of acetonitrile and centrifugal separation to extract the administered test compound contained in the plasma. Each extracted sample was subjected to measurement of the concentration of administered test compound using LC/MS/MS (SHIMADZU UFLC/MS/MS (8050)).

Where [4] appears, read: Test 1, 1 mg/kg single oral dose.

For the compound `C=C1/C(=C\C=C2/CCC[C@]3(C)[C@@H]([C@H](C)CCCC(C)(C)O)CC[C@@H]23)C[C@@H](O)C[C@@H]1O` [1α,25-dihydroxyvitamin D3], in data set [1], the “ratio of concentration in brain/concentration in blood” value is reported as 0.007±0.003.
`C[C@H](CN1CC[C@H](C(F)F)C1)[C@H]1CC[C@H]2/C(=C/C=C3C[C@@H](O)C[C@H](O)C3)CCC[C@]12C` [Compound (A), (1R,3R)-5-(2-((1R,3aS,7aR,E)-1-((S)-1-((S)-3-(difluoromethyl)pyrrolidin-1-yl)propan-2-yl)-7a-methyloctahydro-4H-inden-4-ylidene)ethylidene)cyclohexane-1,3-diol]: the “Average value (mean) of the ratio (the number of MBP-positive cells/the number of Hoechst33342-positive cells)” value in data set [2] (Test 1) was found to be 0.47. Further, the “Brain level at the time of brain Cmax” value in data set [3] (setting [4]) is listed as 529 ± 53 pmol/g.
Consider `C[C@H](CN1CC[C@@H](C(F)F)C1)[C@H]1CC[C@H]2/C(=C/C=C3C[C@@H](O)C[C@H](O)C3)CCC[C@]12C` [Compound (B), (1R,3R)-5-(2-((1R,3aS,7aR,E)-1-((S)-1-((R)-3-(difluoromethyl)pyrrolidin-1-yl)propan-2-yl)-7a-methyloctahydro-4H-inden-4-ylidene)ethylidene)cyclohexane-1,3-diol], for which the “Average value (mean) of the ratio (the number of MBP-positive cells/the number of Hoechst33342-positive cells)” value in data set [2] (Test 1) came to 0.38. Further, the “Brain level at the time of brain Cmax” value in data set [3] (setting [4]) is 384 ± 40 pmol/g.
On to `C[C@H](CN1CC[C@@H](C(C)(F)F)C1)[C@H]1CC[C@H]2/C(=C/C=C3C[C@@H](O)C[C@H](O)C3)CCC[C@]12C` [Compound (C), (1R,3R)-5-(2-((1R,3aS,7aR,E)-1-((S)-1-((R)-3-(1,1-difluoroethyl)pyrrolidin-1-yl)propan-2-yl)-7a-methyloctahydro-4H-inden-4-ylidene)ethylidene)cyclohexane-1,3-diol], for which the “Average value (mean) of the ratio (the number of MBP-positive cells/the number of Hoechst33342-positive cells)” value in data set [2] (Test 1) is given as 0.57. For the same compound, the “Brain level at the time of brain Cmax” value in data set [3] (setting [4]) amounted to 562 ± 50 pmol/g.
Take `C[C@H](CN1CC[C@@H](CC(F)F)C1)[C@H]1CC[C@H]2/C(=C/C=C3C[C@@H](O)C[C@H](O)C3)CCC[C@]12C` [Compound (D), (1R,3R)-5-(2-((1R,3aS,7aR,E)-1-((S)-1-((S)-3-(2,2-difluoroethyl)pyrrolidin-1-yl)propan-2-yl)-7a-methyloctahydro-4H-inden-4-ylidene)ethylidene)cyclohexane-1,3-diol]: the “Average value (mean) of the ratio (the number of MBP-positive cells/the number of Hoechst33342-positive cells)” value in data set [2] (Test 2) is 0.53. Besides, the “Brain level at the time of brain Cmax” value in data set [3] (setting [4]) turned out to be 80 ± 9 pmol/g.
Regarding `C[C@H](CCN1CCOCC1)[C@H]1CC[C@H]2/C(=C/C=C3C[C@@H](O)C[C@H](O)C3)CCC[C@]12C` [Compound (E), (1R,3R)-5-(2-((1R,3aS,7aR,E)-7a-methyl-1-((R)-4-morpholinobutane-2-yl)octahydro-4H-inden-4-ylidene)ethylidene)cyclohexane-1,3-diol], in data set [2] (Test 2), the “Average value (mean) of the ratio (the number of MBP-positive cells/the number of Hoechst33342-positive cells)” value was 0.36. Further, in data set [3] (setting [4]), the “Brain level at the time of brain Cmax” value was found to be 595 ± 23 pmol/g.
With `C[C@H](CN1CCOCC1(C)C)[C@H]1CC[C@H]2/C(=C/C=C3C[C@@H](O)C[C@H](O)C3)CCC[C@]12C` [Compound (F), (1R,3R)-5-(2-((1R,3aS,7aR,E)-1-((S)-1-(3,3-dimethylmorpholino)propan-2-yl)-7a-methyloctahydro-4H-inden-4-ylidene)ethylidene)cyclohexane-1,3-diol], the “Average value (mean) of the ratio (the number of MBP-positive cells/the number of Hoechst33342-positive cells)” value in data set [2] (Test 3) was 0.50. The “Brain level at the time of brain Cmax” value in data set [3] (Test 2, 0.2 mg/kg single oral dose) turned out to be 137.8 ± 11.5 pmol/g.
